{
  "source": "ChEMBL document CHEMBL4840339",
  "about": "“A naphthyridine-indole ligand for selective stabilization of G-quadruplexes and conformational conversion of hybrid topology” (Bioorg Med Chem, 2021)",
  "key": {"Quadruplex DNA [1]": {"test_system": "Quadruplex DNA", "experiment": "Binding affinity to ds26 non-G4 DNA (unknown origin) assessed as conversion from hybrid topology to parallel topology by measuring positive signal at 266 nm at 10 to 100 uM by circular dichroism spectroscopy", "assay_type": "nucleic-acid assay", "conditions": "dose 10-100 µM"}, "HeLa [2]": {"test_system": "HeLa", "experiment": "Induction of apoptosis in human HeLa cells assessed as late apoptotic cells at 6 uM after 24 hrs by Annexin V-FITC/PI staining based flow cytometric analysis (reference value: 0.42 %)", "assay_type": "functional"}, "Quadruplex DNA [3]": {"test_system": "Quadruplex DNA", "experiment": "Binding affinity to G4 quadruplex DNA (unknown origin) assessed as assessed as compound-DNA complex formation by 1H-NMR spectra analysis", "assay_type": "nucleic-acid assay"}, "HeLa [4]": {"test_system": "HeLa", "experiment": "Induction of cell cycle arrest in human HeLa cells assessed as G2/M cell population level at 6 uM incubated for 24 hrs by propidium iodide /RNase staining based flow cytometry (reference value: 36 %)", "assay_type": "functional"}, "Quadruplex DNA [5]": {"test_system": "Quadruplex DNA", "experiment": "Stabilization of F-Tel21-T G4 quadruplex DNA (unknown origin) assessed as thermal stability by measuring normalized intensity in presence of 10 to 50 eq dsDNA at 2 uM by FRET-based competition assay", "assay_type": "nucleic-acid assay"}, "HeLa [6]": {"test_system": "HeLa", "experiment": "Induction of apoptosis in human HeLa cells assessed as viable cells at 6 uM after 24 hrs by Annexin V-FITC/PI staining based flow cytometric analysis (reference value: 95.8 %)", "assay_type": "functional", "conditions": "read-out: Activity"}, "Quadruplex DNA [7]": {"test_system": "Quadruplex DNA", "experiment": "Binding affinity to Tel26 G4 quadruplex DNA (unknown origin) assessed as conversion from hybrid topology to parallel topology by measuring positive signal at 266 nm at 10 to 100 uM by circular dichroism spectroscopy", "assay_type": "nucleic-acid assay", "conditions": "dose 10-100 µM"}, "HeLa [8]": {"test_system": "HeLa", "experiment": "Cytotoxicity against human HeLa cells assessed as […] in cell viability measured after 48 hrs by MTT assay", "assay_type": "functional, cell-based"}, "Quadruplex DNA [9]": {"test_system": "Quadruplex DNA", "experiment": "Binding affinity to Bcl-2 G4 quadruplex DNA (unknown origin) assessed as conversion from hybrid topology to parallel topology by measuring positive signal at 266 nm at 10 to 100 uM by circular dichroism spectroscopy", "assay_type": "nucleic-acid assay", "conditions": "dose 10-100 µM"}, "Quadruplex DNA [10]": {"test_system": "Quadruplex DNA", "experiment": "Binding affinity to c-KIT1 G4 quadruplex DNA (unknown origin) assessed as conversion from hybrid topology to parallel topology by measuring positive signal at 266 nm at 10 to 100 uM by circular dichroism spectroscopy", "assay_type": "nucleic-acid assay", "conditions": "dose 10-100 µM"}, "Quadruplex DNA [11]": {"test_system": "Quadruplex DNA", "experiment": "Stabilization of Tel26 G4 quadruplex DNA (unknown origin) assessed as thermal stability by measuring increase in melting temperature at 100 uM by variable temperature circular dichroism spectroscopy", "assay_type": "nucleic-acid assay"}, "HeLa [12]": {"test_system": "HeLa", "experiment": "Induction of apoptosis in human HeLa cells assessed as increase in caspase 3 level at 4 to 6 uM measured after 48 hrs", "assay_type": "functional, cell-based", "conditions": "dose 4-6 µM"}, "HeLa [13]": {"test_system": "HeLa", "experiment": "Induction of apoptosis in human HeLa cells assessed as early apoptotic cells at 6 uM after 24 hrs by Annexin V-FITC/PI staining based flow cytometric analysis (reference value: 3.28 %)", "assay_type": "functional"}, "Quadruplex DNA [14]": {"test_system": "Quadruplex DNA", "experiment": "Stabilization of Tel26 G4 quadruplex DNA (unknown origin) assessed as thermal stability by measuring increase in melting temperature by UV melting assay", "assay_type": "nucleic-acid assay", "conditions": "dose 5.0 µM"}, "Quadruplex DNA [15]": {"test_system": "Quadruplex DNA", "experiment": "Binding affinity to c-MYC G4 quadruplex DNA (unknown origin) assessed as conversion from hybrid topology to parallel topology by measuring positive signal at 266 nm at 10 to 100 uM by circular dichroism spectroscopy", "assay_type": "nucleic-acid assay", "conditions": "dose 10-100 µM"}, "Quadruplex DNA [16]": {"test_system": "Quadruplex DNA", "experiment": "Binding affinity to Tel23 G4 quadruplex DNA (unknown origin) assessed as conversion from hybrid topology to parallel topology by measuring positive signal at 266 nm at 10 to 100 uM by circular dichroism spectroscopy", "assay_type": "nucleic-acid assay", "conditions": "dose 10-100 µM"}, "Quadruplex DNA [17]": {"test_system": "Quadruplex DNA", "experiment": "Stabilization of F-Tel21-T G4 quadruplex DNA (unknown origin) assessed as thermal stability by measuring normalized intensity at 2 uM by FRET assay", "assay_type": "nucleic-acid assay"}, "Quadruplex DNA [18]": {"test_system": "Quadruplex DNA", "experiment": "Binding affinity to Tel26 G4 quadruplex DNA (unknown origin) assessed as positive signal at 266 nm measured up to 90 deg C at 100 uM by variable temperature circular dichroism spectroscopy", "assay_type": "nucleic-acid assay"}, "HeLa [19]": {"test_system": "HeLa", "experiment": "Induction of cell cycle arrest in human HeLa cells assessed as G0/1 cell population level at 6 uM incubated for 24 hrs by propidium iodide /RNase staining based flow cytometry (reference value: 38 %)", "assay_type": "functional"}, "Quadruplex DNA [20]": {"test_system": "Quadruplex DNA", "experiment": "Stabilization of G4 quadruplex DNA in human HeLa cells assessed as BG4 foci formation at 6 uM measured after 24 hrs by confocal microscopic analysis", "assay_type": "cell-based"}, "dsDNA": {"test_system": "dsDNA", "experiment": "Stabilization of dsDNA (unknown origin) assessed as thermal stability by measuring increase in melting temperature by UV melting assay", "assay_type": "nucleic-acid assay"}, "HeLa [21]": {"test_system": "HeLa", "experiment": "Induction of apoptosis in human HeLa cells assessed as necrotic cells at 6 uM after 24 hrs by Annexin V-FITC/PI staining based flow cytometric analysis (reference value: 0.42 %)", "assay_type": "functional"}, "HeLa [22]": {"test_system": "HeLa", "experiment": "Induction of cell cycle arrest in human HeLa cells assessed as S cell population level at 6 uM incubated for 24 hrs by propidium iodide /RNase staining based flow cytometry (reference value: 36 %)", "assay_type": "functional"}, "Quadruplex DNA [23]": {"molecular_target": "Quadruplex DNA", "experiment": "Displacement of thiazole orange from Tel26 G4 quadruplex DNA (unknown origin) assessed as relative affinity by fluorescent intercalator displacement assay", "assay_type": "nucleic-acid assay"}},
  "note": "Activity calls are given as the source filed them. No cut-off for these calls is given here.",
  "data": [
    {"molecule": "CN(C)CCOc1ccc2c(ccn2-c2ccc3ccc(-n4ccc5cc(OCCN(C)C)ccc54)nc3n2)c1", "values": [
      {"measurement": "Activity", "setting": "Quadruplex DNA [1]", "result": "inactive"},
      {"measurement": "Activity", "setting": "HeLa [2]", "result": 16.6, "unit": "%"},
      {"measurement": "Activity", "setting": "Quadruplex DNA [3]", "result": "Active"},
      {"measurement": "Activity", "setting": "HeLa [4]", "result": 10, "unit": "%"},
      {"measurement": "Activity", "setting": "Quadruplex DNA [5]", "result": "Active"},
      {"measurement": "viability at 6 µM", "setting": "HeLa [6]", "result": 61.8, "unit": "%"},
      {"measurement": "Activity", "setting": "Quadruplex DNA [7]", "result": "Active"},
      {"measurement": "IC50", "setting": "HeLa [8]", "result": 4.3, "unit": "µM"},
      {"measurement": "Activity", "setting": "Quadruplex DNA [9]", "result": "Active"},
      {"measurement": "Activity", "setting": "Quadruplex DNA [10]", "result": "inactive"},
      {"measurement": "ΔTm", "setting": "Quadruplex DNA [11]", "result": 37, "unit": "°C"},
      {"measurement": "Activity", "setting": "HeLa [12]", "result": "Active"},
      {"measurement": "Activity", "setting": "HeLa [13]", "result": 20.1, "unit": "%"},
      {"measurement": "Activity", "setting": "Quadruplex DNA [14]", "result": "Active"},
      {"measurement": "Activity", "setting": "Quadruplex DNA [15]", "result": "inactive"},
      {"measurement": "Activity", "setting": "Quadruplex DNA [16]", "result": "Active"},
      {"measurement": "Activity", "setting": "Quadruplex DNA [17]", "result": "Active"},
      {"measurement": "Activity", "setting": "Quadruplex DNA [18]", "result": "Active"},
      {"measurement": "Activity", "setting": "HeLa [19]", "result": 57, "unit": "%"},
      {"measurement": "Activity", "setting": "Quadruplex DNA [20]", "result": "Active"},
      {"measurement": "Activity", "setting": "dsDNA", "result": "inactive"},
      {"measurement": "Activity", "setting": "HeLa [21]", "result": 1.49, "unit": "%"},
      {"measurement": "Activity", "setting": "HeLa [22]", "result": 33, "unit": "%"},
      {"measurement": "IC50", "setting": "Quadruplex DNA [23]", "result": 6.7, "unit": "µM"}
    ]}
  ]
}
